Values quoted from earlier work as cited in patent US6127388A, “Azetidine, pyrrolidine and piperidine derivatives as 5-HT1D receptor agonists” (Merck Sharp & Dohme Ltd., priority 1996, dated 2000).

Conditions: therapeutic doses

CNS(=O)(=O)Cc1ccc2[nH]cc(CCN(C)C)c2c1 [sumatriptan]
adverse cardiovascular events in humans: certain adverse cardiovascular events
